Measurements reported in US8324223B2, “Substituted thieno [2,3-d] pyrimidines as HIV inhibitors” (priority 2006, dated 2012).

Each molecule was assayed on HIV-1 Y188L (assay: microbe, parasite or virus in culture). Details: Human immunodeficiency virus 1, HeLa, read-out: EC50 Y188L (nM).
Type: cell-based, human immunodeficiency virus type 1 (HIV-1)

**Q.** How did the EC50 turn out when `Cc1cc(C)c(Oc2nc(Nc3ccc(C#N)cc3)nc3ccsc23)c(C)c1` [Cpd 1] was run?
**A.** < 10 nM

**Q.** `Cc1cc(C)c(Nc2nc(Nc3ccc(C#N)cc3)nc3ccsc23)c(C)c1` [Cpd 2] was tested. Which EC50 did it give?
**A.** > 100 nM

**Q.** Which EC50 does the source give for `Cc1cc(C#N)cc(C)c1Oc1nc(Nc2ccc(C#N)cc2)nc2ccsc12` [Cpd 3] here?
**A.** < 10 nM

**Q.** `Cc1cc(C)c(Oc2nc(Nc3ccc(C#N)cc3)nc3sccc23)c(C)c1` [Cpd 4] was tested. Which EC50 did it give?
**A.** 10 to 100 nM

**Q.** `Cc1cc(C)c(Oc2nc(Nc3ccc(C#N)cc3)nc3sc4c(c23)CCCC4)c(C)c1` [Cpd 5] was tested. Which EC50 did it give?
**A.** > 100 nM

**Q.** How did the EC50 turn out when `Cc1cc(C)c(Oc2nc(Nc3ccc(C#N)cc3)nc3c(C)csc23)c(C)c1` [Cpd 6] was run?
**A.** 10 to 100 nM

**Q.** How did the EC50 turn out when `Cc1cc(C#N)cc(C)c1Oc1nc(Nc2ccc(C#N)cc2)nc2sccc12` [Cpd 7] was run?
**A.** < 10 nM

**Q.** How did the EC50 turn out when `Cc1cc(C)c(Nc2nc(Nc3ccc(C#N)cc3)nc3c(C)csc23)c(C)c1` [Cpd 8] was run?
**A.** 10 to 100 nM

**Q.** Which EC50 does the source give for `Cc1cc(C#N)cc(C)c1Oc1nc(Nc2ccc(C#N)cc2)nc2c(C)csc12` [Cpd 9] here?
**A.** < 10 nM

What follows are molecules tested on wild type HIV-1 (assay: microbe, parasite or virus in culture). Details: Human immunodeficiency virus 1, Hela-JC53, read-out: EC50 WT (nM).
Type: cell-based, human immunodeficiency virus type 1 (HIV-1)

**Q.** How did the EC50 turn out when `Cc1cc(C)c(Oc2nc(Nc3ccc(C#N)cc3)nc3ccsc23)c(C)c1` [Cpd 1] was run?
**A.** < 10 nM

**Q.** Which EC50 does the source give for `Cc1cc(C)c(Nc2nc(Nc3ccc(C#N)cc3)nc3ccsc23)c(C)c1` [Cpd 2] here?
**A.** < 10 nM

**Q.** For `Cc1cc(C#N)cc(C)c1Oc1nc(Nc2ccc(C#N)cc2)nc2ccsc12` [Cpd 3], which EC50 is on record?
**A.** < 10 nM

**Q.** With `Cc1cc(C)c(Oc2nc(Nc3ccc(C#N)cc3)nc3sccc23)c(C)c1` [Cpd 4] as the molecule, how does the EC50 read?
**A.** < 10 nM

**Q.** Which EC50 does the source give for `Cc1cc(C)c(Oc2nc(Nc3ccc(C#N)cc3)nc3sc4c(c23)CCCC4)c(C)c1` [Cpd 5] here?
**A.** 10 to 100 nM

**Q.** How did the EC50 turn out when `Cc1cc(C)c(Oc2nc(Nc3ccc(C#N)cc3)nc3c(C)csc23)c(C)c1` [Cpd 6] was run?
**A.** 10 to 100 nM

**Q.** With `Cc1cc(C#N)cc(C)c1Oc1nc(Nc2ccc(C#N)cc2)nc2sccc12` [Cpd 7] as the molecule, how does the EC50 read?
**A.** < 10 nM

**Q.** With `Cc1cc(C)c(Nc2nc(Nc3ccc(C#N)cc3)nc3c(C)csc23)c(C)c1` [Cpd 8] as the molecule, how does the EC50 read?
**A.** < 10 nM

**Q.** For `Cc1cc(C#N)cc(C)c1Oc1nc(Nc2ccc(C#N)cc2)nc2c(C)csc12` [Cpd 9], which EC50 is on record?
**A.** < 10 nM

The molecules below were run on HIV-1 L100I-K103N (assay: microbe, parasite or virus in culture). Details: Human immunodeficiency virus 1, HeLa, read-out: EC50 L100I-K103N (nM).
Type: cell-based, human immunodeficiency virus type 1 (HIV-1)

**Q.** For `Cc1cc(C)c(Oc2nc(Nc3ccc(C#N)cc3)nc3ccsc23)c(C)c1` [Cpd 1], which EC50 is on record?
**A.** 10 to 100 nM

**Q.** How did the EC50 turn out when `Cc1cc(C)c(Nc2nc(Nc3ccc(C#N)cc3)nc3ccsc23)c(C)c1` [Cpd 2] was run?
**A.** > 100 nM

**Q.** `Cc1cc(C#N)cc(C)c1Oc1nc(Nc2ccc(C#N)cc2)nc2ccsc12` [Cpd 3] was tested. Which EC50 did it give?
**A.** < 10 nM

**Q.** For `Cc1cc(C)c(Oc2nc(Nc3ccc(C#N)cc3)nc3sccc23)c(C)c1` [Cpd 4], which EC50 is on record?
**A.** 10 to 100 nM

**Q.** For `Cc1cc(C)c(Oc2nc(Nc3ccc(C#N)cc3)nc3sc4c(c23)CCCC4)c(C)c1` [Cpd 5], which EC50 is on record?
**A.** > 100 nM

**Q.** For `Cc1cc(C)c(Oc2nc(Nc3ccc(C#N)cc3)nc3c(C)csc23)c(C)c1` [Cpd 6], which EC50 is on record?
**A.** 10 to 100 nM

**Q.** With `Cc1cc(C#N)cc(C)c1Oc1nc(Nc2ccc(C#N)cc2)nc2sccc12` [Cpd 7] as the molecule, how does the EC50 read?
**A.** 10 to 100 nM

**Q.** How did the EC50 turn out when `Cc1cc(C#N)cc(C)c1Oc1nc(Nc2ccc(C#N)cc2)nc2c(C)csc12` [Cpd 9] was run?
**A.** < 10 nM

What follows are molecules tested on HIV-1 Y181C (assay: microbe, parasite or virus in culture). Details: Human immunodeficiency virus 1, HeLa, read-out: EC50 Y181C (nM).
Type: cell-based, human immunodeficiency virus type 1 (HIV-1)

**Q.** `Cc1cc(C)c(Oc2nc(Nc3ccc(C#N)cc3)nc3ccsc23)c(C)c1` [Cpd 1] was tested. Which EC50 did it give?
**A.** < 10 nM

**Q.** How did the EC50 turn out when `Cc1cc(C)c(Nc2nc(Nc3ccc(C#N)cc3)nc3ccsc23)c(C)c1` [Cpd 2] was run?
**A.** 10 to 100 nM

**Q.** Which EC50 does the source give for `Cc1cc(C#N)cc(C)c1Oc1nc(Nc2ccc(C#N)cc2)nc2ccsc12` [Cpd 3] here?
**A.** 10 to 100 nM

**Q.** With `Cc1cc(C)c(Oc2nc(Nc3ccc(C#N)cc3)nc3sccc23)c(C)c1` [Cpd 4] as the molecule, how does the EC50 read?
**A.** 10 to 100 nM

**Q.** How did the EC50 turn out when `Cc1cc(C)c(Oc2nc(Nc3ccc(C#N)cc3)nc3sc4c(c23)CCCC4)c(C)c1` [Cpd 5] was run?
**A.** > 100 nM

**Q.** Which EC50 does the source give for `Cc1cc(C)c(Oc2nc(Nc3ccc(C#N)cc3)nc3c(C)csc23)c(C)c1` [Cpd 6] here?
**A.** 10 to 100 nM

**Q.** `Cc1cc(C#N)cc(C)c1Oc1nc(Nc2ccc(C#N)cc2)nc2sccc12` [Cpd 7] was tested. Which EC50 did it give?
**A.** < 10 nM

**Q.** Which EC50 does the source give for `Cc1cc(C)c(Nc2nc(Nc3ccc(C#N)cc3)nc3c(C)csc23)c(C)c1` [Cpd 8] here?
**A.** 10 to 100 nM

**Q.** Which EC50 does the source give for `Cc1cc(C#N)cc(C)c1Oc1nc(Nc2ccc(C#N)cc2)nc2c(C)csc12` [Cpd 9] here?
**A.** < 10 nM
